We go through three molecules from patent US20090176817A1, “Method of Treatment of Diarrhea-Predominant Irritable Bowel Syndrome in a Subject” (priority 2005, published 2009).

The test system of series [1] is patients with malignant tumors. In words: Study S.241.2.101: cisplatin-induced nausea and vomiting. In kind it is in vivo, human. To be noted: IV 8 mg TID. Here is the method: (§1) The effect of cilansetron on nausea and vomiting has been studied in 2 clinical studies in cancer patients. Both studies were randomized, singleblind, positive-controlled, parallel-group, pilot studies in male and female patients with malignant tumors, to investigate the effect of cilansetron on cytostatic-induced nausea and vomiting. In both studies, patients were on their first cycle of chemotherapy and were being treated with cisplatin (275 mg/m2 as a single dose in Study S.24 1.2.10 1 and […] for 5 days in Study K.24 1 S O 17). Patients in Study S.24 1.2.10 1 were aged 40-74 years (ITT population=16) and patients in Study K.24 1 S O 17 were aged 39-74 years (ITT population=19). In both studies, patients were randomized to receive either […] or IV ondansetron 8 mg TID for 1 day (Study S.241.2.101) or 5 days (Study K.2415017), corresponding to the day(s) of their cisplatin administration. If nausea and vomiting were completely controlled on a treatment day, the second and/or third doses of cilansetron or ondansetron could be omitted on that day. The primary efficacy parameter in both studies was the combination of the occurrence of vomiting and the severity of nausea, with a responder being defined as a patient with no vomiting and not more than mild nausea during the treatment day(s). […]

The subject of series [2] is patients with malignant tumors. The series can be described thus: Study K.241.5017: cisplatin-induced nausea and vomiting. In kind it is in vivo, human. The following applies: IV 8 mg TID. Here is the method:
as §1

Series [3] deals with CYP3A4 (formation of 4-hydroxy metabolites of cilansetron). In words: in vitro. To be noted: human, human hepatic microsomes, probe cilansetron (100 μM), formation of the 4-hydroxy metabolites.
The test system of series [4] is CYP3A4 (cilansetron metabolism). The series can be described thus: in vitro. To be noted: human, human hepatic microsomes, probe cilansetron (100 μM), overall metabolism.
In series [5] the test system is cilansetron metabolism (ketoconazole 25 μM used as general inhibitor). The series can be described thus: in vitro. The following applies: human, human hepatic microsomes, probe cilansetron (100 μM), overall metabolism.
A short description of series [6]: Study S.241.1.104: Ortho Tri-Cyclen pharmacokinetics with cilansetron 2 mg TID. In kind it is in vivo, human. The following applies: for Cmin / Cmax / AUC / half-life: arith. mean; for AUC: read-out: AUC(0-τ); for half-life: read-out: T½ (converted). The text has this:
The effects of concomitant administration of cilansetron and a commonly used oral contraceptive, Ortho Tri-Cyclen (ORC), on the pharmacokinetics and pharmacodynamics of ORC and the pharmacokinetics of cilansetron has been evaluated in a randomized, double-blind, placebo-controlled, multiple-dose, 2-period, crossover study in 20 healthy, female subjects, aged 19 to 42 years. Subjects received the following two treatments during each of two 28-day study periods (2 ORC cycles) in a randomized, crossover fashion: Treatment B (reference treatment)−ORC on Days 1-28 (standard ORC cycle)+placebo TID on Days 14-20 and a single dose of placebo on Day 21; Treatment A (test treatment)−ORC on Days 1-28 (standard ORC cycle)+cilansetron 2 mg TID on Days 14-20 and a single dose of cilansetron 2 mg on Day 21. […] For evaluation of the effect of concomitant cilansetron on the pharamacodynamics of ORC, blood samples were collected prior to morning dosing on Days 18, 19, 20, 26, 27, and 28 for measurement of serum progesterone (PG), luteinizing hormone (LH), and follicle stimulating hormone (FSH) concentrations, and untransformed data were compared statistically between treatments.

Setting [7] is: female, human, plasma, oral, ORC + Cilansetron 2 mg TID, Day 21.
Where [8] appears, read: female, human, plasma, oral, ORC + Placebo, Day 21.

Like-named read-outs stand apart in the source and are kept apart here.

`Cc1nccn1CC1CCc2c(c3ccccc3n2C)C1=O` (stereo not shown) [ondansetron, reference compound]: the Response rate in series [1] is 25.0%; in series [2] it was 60.0%.

One may read the inhibition as the share of the control response that was lost under treatment. As for `CC(=O)N1CCN(c2ccc(OCC3COC(Cn4ccnc4)(c4ccc(Cl)cc4Cl)O3)cc2)CC1` (stereo not shown) [ketoconazole], the inhibition at 1 μM in series [3] is 47%; in series [4], approximately 70%. In series [5], this molecule displayed an inhibition at 25 μM of 93%.

A word on the Cmax: it is the peak of the concentration-time curve. In general, AUC refers to concentration integrated over time. One may read the Tmax as the time from dosing to the highest level. Regarding `C#C[C@]1(O)CC[C@H]2[C@@H]3CCc4cc(O)ccc4[C@H]3CC[C@@]21C` [EE, ethinyl estradiol], the Cmin in series [6] (ORC + Cilansetron 2 mg TID, Day 21) was found to be 0.022 ng/mL. Further, the Cmin in series [6] (ORC + Placebo, Day 21) stood at 0.024 ng/mL. In series [6] (setting [7]), the maximum concentration (Cmax) amounted to 0.144 ng/mL, the AUC turned out to be 1.21 ng·h/mL and the half-life was 20.9 h. Also, in series [6] (female, human, plasma, oral, ORC + Cilansetron 2 mg TID, Day 21, median), the Tmax came out at 1.25 h. Moreover, in series [6] (setting [8]), the Cmax worked out at 0.156 ng/mL, the AUC came to 1.32 ng·h/mL and the half-life was 21.2 h. Besides, in series [6] (in vivo), the “Mean AUC(0-τ) decrease with concomitant cilansetron” value was found to be 10% and the “Mean Cmax decrease with concomitant cilansetron” value is 8%.
